Experimental data: PubChem BioAssay (NCI)
Values joined by “and” are separate entries in the source; they are usually repeats but may differ in a detail not shown here. Equal entries are not always repeated.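 Interpolation was linear, between the two tested concentrations surrounding the appropriate level; five concentrations were tested over 48 hours in 96-well plates. Here, GI50 denotes the concentration required for 50% inhibition of growth. TGI marks complete inhibition of growth.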

Assays:
Test in all cases: NCI tumour cell line growth inhibition, 48 h
COLO 205 colon = test system: COLO 205 colon
RXF 393 renal = test system: RXF 393 renal
OVCAR-8 ovarian = test system: OVCAR-8 ovarian
SN12C renal = test system: SN12C renal
OVCAR-3 ovarian = test system: OVCAR-3 ovarian
T-47D breast = test system: T-47D breast
M14 melanoma = test system: M14 melanoma
DU-145 prostate = test system: DU-145 prostate
CAKI-1 renal = test system: CAKI-1 renal
NCI-H522 lung = test system: NCI-H522 lung

Row | Compound | TGI (COLO 205 colon) [µM] | TGI (RXF 393 renal) [µM] | TGI (OVCAR-8 ovarian) | TGI (SN12C renal) | TGI (OVCAR-3 ovarian) [µM] | TGI (T-47D breast) | TGI (M14 melanoma) [µM] | TGI (DU-145 prostate) [µM] | TGI (CAKI-1 renal) [µM] | TGI (NCI-H522 lung) [µM] | GI50 (COLO 205 colon) [µM] | GI50 (RXF 393 renal) [µM] | GI50 (OVCAR-8 ovarian) [µM] | GI50 (SN12C renal) [µM] | GI50 (OVCAR-3 ovarian) [µM] | GI50 (T-47D breast) [µM] | GI50 (M14 melanoma) [µM] | GI50 (DU-145 prostate) [µM] | GI50 (CAKI-1 renal) [µM] | GI50 (NCI-H522 lung) [µM]
1 | COC(=O)c1ccc([N+](=O)[O-])c(O)c1 | > 100 | > 100 | > 100 µM | > 100 µM | > 100 | > 100 µM | > 100 | > 100 | > 100 | > 100 | – | – | – | – | – | – | – | – | – | –
2 | COc1ccc(/C=C/c2cc(N3CCOCC3)c3cc(F)c(F)cc3n2)cc1OC | 3.81 | 10.8 | 3.23 µM | 14.1 µM | 2.26 | 5.69 µM | 3.92 | 11.8 | 3.24 | 2.72 | 0.558 | 1.36 | 0.55 | 1.68 | 0.351 | 0.449 | 0.762 | 1.58 | 0.394 | 0.454
3 | Cc1ccccc1N=Nc1c(O)[nH]c2ccccc12 | > 100 | > 100 | > 100 µM | > 100 µM | > 100 | > 100 µM | > 100 | > 100 | > 100 | > 100 | – | – | – | – | – | – | – | – | – | –
4 | Oc1cc(O)c2c(=S)cc(-c3ccc(Cl)cc3)oc2c1 | 33.6 | 12.5 | 14.9 µM | 11.1 µM | 8.94 | 0.547 µM | 14.8 | 35.1 | 19.1 | 7.25 | 15.3 | 3.15 | 3.3 | 2.78 | 1.52 | 0.0304 | 3.22 | 4.09 | 2.95 | 2.29
5 | N#Cc1c(NC(=O)CN2CCOCC2)sc2c1CCCC2 | > 25 | > 25 | > 25 µM | > 25 µM | > 25 | > 25 µM | > 25 | > 25 | > 25 | > 25 | > 25 | > 25 | > 25 | > 25 | > 25 | > 25 | > 25 | > 25 | > 25 | > 25
6 | Cc1nc(/N=C(\N)NC(=O)Nc2ccccc2Cl)sc1C | 4.57 | 2.11 | > 40.2 µM | > 100 µM | 1.28 | > 100 µM | 18.7 | 5.85 | 9.41 | – | 0.474 | 0.399 | 0.592 | 0.739 | 0.299 | 0.519 | 0.314 | 0.621 | 0.435 | 0.189
7 | COc1cc([C@@H]2c3cc4c(cc3[C@H](O)[C@H]3COC(=O)[C@H]23)OCO4)cc(OC)c1OC | < 0.005 | – | > 100 µM and 50 µM and > 7.6 µM | > 100 µM and 35 µM | – | > 100 µM and 34.1 µM | – | 0.5 | – | < 0.01 | < 0.01 | < 0.01 | < 0.01 | < 0.005 | < 0.005 | > 84.5 | < 0.005 | < 0.01 | < 0.005 | < 0.01
8 | Cc1cc(-c2nc(-c3ccc(OC(F)(F)F)cc3)no2)nn1Cc1ccnc(N2CCN(C3CC3)CC2)c1 | 25.7 | > 75.6 | > 100 µM | > 100 µM | > 100 | > 100 µM | 20.4 | > 100 | > 100 | 58.1 | 3.27 | > 27.9 | > 44.4 | > 34.1 | 10.3 | 1.03 | 2.69 | > 59.4 | 6.3 | 2.68
9 | NC(=O)C(NC=O)c1ccccc1 (configuration not stated) | > 100 | > 100 | > 100 µM | > 100 µM | > 100 | > 100 µM | > 100 | > 100 | > 100 | > 100 | – | – | – | – | – | – | – | – | – | –
10 | C=C(C)[C@@H]1CCC2=C[C@@H](OC2=O)[C@@H](C(=C)C)C(=O)/C=C(/C)C(=O)C1 | 56.8 | 53.3 | > 100 µM | 77.3 µM | 57.8 | > 100 µM | 50.5 | > 100 | 60.9 | > 100 | 26.3 | 22.4 | 49 | 28.6 | 22.6 | 51.1 | 20.8 | 34.9 | 25.4 | 34.4
11 | C#COc1cccc(Nc2ncnc3ncc(NC(=O)CCl)cc23)c1 | > 62.5 | > 62.5 | > 62.5 µM | > 62.5 µM | > 62.5 | > 62.5 µM | > 62.5 | > 62.5 | > 62.5 | > 29.9 | > 26.8 | > 62.5 | > 14.5 | – | > 25 | > 62.5 | 50.5 | > 26.4 | > 15.2 | > 17.9
12 | COc1cc2c3c(n(C)c(=O)c2cc1OC)-c1cc2c(cc1/C3=C\CCCBr)OCO2 | 55.8 | 16.8 | > 48.7 µM | > 100 µM | > 100 | > 100 µM | > 100 | > 100 | > 100 | > 30.2 | 18.8 | 6.35 | – | > 100 | > 92.2 | > 91.3 | > 96.6 | > 59.6 | 48.1 | –
13 | CC(=O)OCC1OC(OC2=C(CC=C(Cl)Cl)C(=O)c3ccccc3C2=O)C(OC(C)=O)C(OC(C)=O)C1OC(C)=O (configuration not stated) | 36.3 | 8.01 | 8.29 µM | 18.7 µM | 4.88 | 5.41 µM | 28 | 24.1 | 17.6 | 5.2 | 13.6 | 2.53 | 2.96 | 5.62 | 2.27 | 1.99 | 12.6 | 11.8 | 4.91 | 2.17
14 | CCOC(=O)C1=C(C)NC2SC(=O)/C(=C\c3ccccc3)N2C1c1ccccc1 (configuration not stated) | > 100 | > 100 | > 100 µM | > 100 µM | > 100 | > 100 µM | > 100 | > 100 | > 100 | > 100 | > 100 | > 100 | > 100 | > 100 | > 100 | 38.2 | > 100 | > 100 | > 100 | > 100
15 | O=C(NNC(=O)c1ccncc1)c1ccncc1 | > 100 | > 100 | > 100 µM | > 100 µM | > 100 | > 100 µM | > 100 | > 100 | > 100 | > 100 | – | – | – | – | – | – | – | – | – | –
16 | O=S1(=O)CS(=O)(=O)OCCCO1 | > 100 | > 100 | > 100 µM | > 100 µM | > 100 | > 100 µM | > 100 | > 100 | > 100 | > 100 | – | – | – | – | – | – | – | – | – | –
17 | CN1c2ccccc2S(=O)(=O)n2c(COc3ccc(Cl)cc3)nnc21 | > 100 | > 100 | > 100 µM | > 100 µM | > 100 | > 100 µM | > 100 | > 100 | > 100 | > 100 | – | – | – | – | – | – | – | – | – | –
18 | C/C(=C\CCc1ccoc1)CC/C=C(\C)CCCN1CCC(CO)CC1 | 3.98 | 4.26 | 19 µM | 18.9 µM | 13.7 | 8.92 µM | 3.92 | 20.6 | 16.5 | 5.83 | 1.94 | 1.54 | 5.19 | 4.54 | 3.78 | 2.51 | 1.94 | 8.41 | 4.26 | 2.17
19 | c1ccc(-c2nn(-c3ccccc3)[n+](-c3cccc4ccccc34)n2)cc1 | 1.28 | 31.4 | 54.5 µM | > 100 µM | 19.1 | 17.4 µM | 23.1 | > 100 | > 100 | 10.9 | 0.313 | 2.24 | 1.85 | 2.45 | 1.11 | 0.825 | 3.09 | 4.26 | 37.1 | 0.979
